Source: US10100056B2, “SHIP1 modulators and methods related thereto” (Aquinox Pharmaceuticals (Canada) Inc., priority 2013, dated 2018)

Assays:
[1] = test system: Akt phosphorylation in Molt-4 (PTEN-/SHIP1+) cells; test: Akt phosphorylation in lymphocytes (Western blot, IGF-1 stimulated); type: cell-based; parameters: key: +: inhibits Akt phosphorylation at 30 μM; −: no effect on Akt phosphorylation at 30 μM; settings: 30 μM; Molt-4 (SHIP1+) cells, IGF-1 100 ng/mL
Description: Molt-4 (PTEN-/SHIP1+) cells are starved in serum free RPMI for overnight. In a 15 mL conical tube, 2-3 million serum starved cells (1 million cells per mL) are treated with various concentrations of test compound ([…]) for 30 min at 37° C. followed by stimulation with 100 ng/mL of IGF-1 for 1 hour at 37° C. After stimulation, cells are washed once with ice-cold DPBS and lysed with Lysis Buffer (20 mM Tris-HCl, pH 7.5, 140 mM NaCl, 1% NP-40, Complete Mini Protease Inhibitor Cocktail, 10 mM NaF, 1 mM Na3VO4, 1 mM β-glycerolphosphate) on ice for 30 min with vortexing every 10 min. Samples are then centrifuged at 13,000 rpm for 20 min, and supernatants are collected as total cell lysate samples. Protein concentration is determined using bicinchonic acid assay, and about 15 μg of total protein from each sample is loaded and separated on a 4-12% Tris-Glycine gel. After SDS-PAGE, proteins are transferred from the gel to a nitrocellulose membrane. The membrane is blocked in 5% BSA in PBS containing 0.1% Tween-20 (PBS-T) for 1 hour at room temperature before probing with primary antibodies for overnight at 4° C. The following antibodies are used: mouse anti-SHIP1 (1:500 dilution; Santa Cruz, Calif., USA), rabbit anti-phospho-Akt (Ser473) (1:1000 dilution; Cell Signaling Technologies, MA, USA), rabbit anti-Akt (1:1000; Cell Signaling Technologies, MA, USA), and rabbit anti-actin (1:2000; Cell Signaling Technologies, MA, USA). The membrane is then incubated with goat anti-rabbit or anti-mouse secondary antibodies (1:3000) for 1 hour at room temperature. Target proteins on the membrane are detected with ECL solution and exposed on a film.

His-hSHIP1 enzyme = molecular target: T1, His-hSHIP1 enzyme (Homo sapiens, UniProt Q92835); test: His-hSHIP1 activity (phosphatase assay, IP4 substrate, Biomol Green); type: biochemical; parameters: key to Scoring, Approach 2 (Initial velocity Ratio): +++: higher than reference or reference - 15%; ++: reference - 16% to reference - 30%; +: reference - 31% or lower; −: inhibitor; settings: second approach: ratio of initial velocities IP4 25/250 μM compared with reference compound; values without asterisk
T1 construct: His
T1 sequence (Q92835 1-1189): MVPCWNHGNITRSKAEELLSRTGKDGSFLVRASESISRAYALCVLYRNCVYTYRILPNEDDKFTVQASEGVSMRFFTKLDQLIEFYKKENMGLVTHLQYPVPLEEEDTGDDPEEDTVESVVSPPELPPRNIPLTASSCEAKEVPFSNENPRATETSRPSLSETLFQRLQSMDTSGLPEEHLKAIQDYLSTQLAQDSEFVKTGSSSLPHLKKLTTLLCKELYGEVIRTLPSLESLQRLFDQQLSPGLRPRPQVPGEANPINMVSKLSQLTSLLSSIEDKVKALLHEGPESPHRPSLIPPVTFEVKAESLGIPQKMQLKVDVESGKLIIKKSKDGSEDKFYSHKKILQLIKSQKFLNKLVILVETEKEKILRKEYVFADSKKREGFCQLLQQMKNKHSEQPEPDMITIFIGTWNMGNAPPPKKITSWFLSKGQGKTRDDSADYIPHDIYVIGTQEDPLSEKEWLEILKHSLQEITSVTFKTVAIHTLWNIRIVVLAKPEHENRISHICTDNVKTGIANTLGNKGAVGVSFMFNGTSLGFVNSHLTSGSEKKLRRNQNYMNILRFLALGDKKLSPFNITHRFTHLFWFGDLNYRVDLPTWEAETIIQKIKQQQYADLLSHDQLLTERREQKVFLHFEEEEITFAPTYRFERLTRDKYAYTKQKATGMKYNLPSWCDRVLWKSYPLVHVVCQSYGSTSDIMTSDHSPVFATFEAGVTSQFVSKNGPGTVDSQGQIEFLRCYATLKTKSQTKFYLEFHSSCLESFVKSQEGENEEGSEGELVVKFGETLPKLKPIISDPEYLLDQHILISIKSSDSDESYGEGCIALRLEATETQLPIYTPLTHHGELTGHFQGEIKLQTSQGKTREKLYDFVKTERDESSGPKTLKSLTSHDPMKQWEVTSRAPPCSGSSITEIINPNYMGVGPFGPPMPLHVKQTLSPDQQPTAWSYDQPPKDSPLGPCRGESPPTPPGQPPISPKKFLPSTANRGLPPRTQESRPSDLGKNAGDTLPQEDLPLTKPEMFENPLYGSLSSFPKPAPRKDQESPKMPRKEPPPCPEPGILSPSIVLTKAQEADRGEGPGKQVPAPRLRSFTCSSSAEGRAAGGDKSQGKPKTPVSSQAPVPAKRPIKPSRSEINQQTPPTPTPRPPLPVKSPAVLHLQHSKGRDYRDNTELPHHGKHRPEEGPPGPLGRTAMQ
Description: Test compounds are dissolved in 95% ethanol to form stock solutions. Before screening, the stock solutions are diluted with Phosphatase Assay Buffer (20 mM Tris-HCL, 10 mM MgCl2 pH 7.5, 0.02% Tween 20) to form working assay solutions that contain 10% ethanol. The assay is carried out on 96-well microtiter plates using a modified procedure of that reported by Ong et al., Blood 110, 1942-1949, 2007 and Yang et al., Org Lett 7, 1073-1076, 2005, both of which references are incorporated herein by reference in their entirety.
Data were generated by one of two variant methods. Test compounds are screened by one of two approaches described as follows. In the first approach, each reaction contains 5 μL of His-hSHIP1 enzyme (5-20 ng), 10 μL of the substrate, 1,3,4,5-inositol tetrakisphosphate (IP4; 50 μM final), 5 μL of Phosphatase Assay Buffer, and 5 µL of test compound at various concentrations in 10% ethanol (0-300 μM final). Control blanks are also prepared by replacing His-hSHIP1 enzyme, IP4, or test compounds with Phosphatase Assay Buffer. After adding the reaction components in a 96-well microtiter plate on ice, the reaction is mixed by briefly shaking the plate vigorously. The reaction is then incubated at 37° C. for 15 min with gentle shaking followed by addition of 100 μL of Biomol Green Reagent (BIOMOL, PA, USA) to terminate the reaction. The free phosphate released from IP4 by His-hSHIP1 binds to the Biomol Green Reagent, which turns the dye to green color. After incubating the mixture for 20 min at room temperature for color development, the absorbance is read with SpectraMax Plus 96-well plate reader (Molecular Devices, Sunnyvale, Calif., USA) at a wavelength of 650 nm.
In the second approach, a master mix is prepared that contains 50 μL of His-hSHIP1 enzyme (0.4-1.6 ng/μL final), 25 μL of the substrate, IP4 (25 or 250 μM final), and 50 μL of test compound in 3.3% ethanol (100 μL final). Control blanks are also prepared by replacing His-hSHIP1 enzyme, IP4, or test compounds with Phosphate Assay Buffer. […] Each reaction component is preincubated at 37° C. for 30 min before adding to a 96-well microtiter plate. The master mix is then incubated at 37° C. At time 0, 20, and 30 min, 25 μL of the master mix is removed and transferred to a new 96-well microtiter plate, to which 100 μL of Biomol Green Reagent is added to stop the reaction. After incubating the mixture for 20 min at room temperature for color development, the absorbance is read with SpectraMax Plus 96-well plate reader at a wavelength of 650 nm. Phosphate released is plotted against time to calculate the initial velocities (i.e., slope of the graph) at each IP4 concentration. The initial velocities are baseline corrected and the ratio of initial velocities (IP425/IP4250) is calculated and used to rate the test compounds.

| SMILES | Scoring, Approach 2 (Initial velocity Ratio) (His-hSHIP1 enzyme) | Molt-4 (SHIP+): inhibition of Akt phosphorylation [1] |
| --- | --- | --- |
| CC1(C)CCC2=C1CC[C@H]([C@@]1(C)CC[C@H](O)C[C@@H]1CO)[C@H]2CNC(=N)N.Cl [Cpd. No. 1, 1-(((4R,5S)-5-((1R,2S,4S)-4-hydroxy-2-(hydroxymethyl)-1-methylcyclohexyl)-1,1-dimethyl-2,3,4,5,6,7-hexahydro-1H-inden-4-yl)methyl)guanidine hydrochloride] | ++ | + |
| C=C1CC[C@H]2[C@H](CNCc3ccc(OC)cc3)[C@@H]([C@@]3(C)CC[C@H](O)C[C@@H]3CO)CC[C@]12C [Cpd. No. 18, (1S,3S,4R)-3-(hydroxymethyl)-4-((3aS,4R,5S,7aS)-4-((4-methoxybenzylamino)methyl)-7a-methyl-1-methyleneoctahydro-1H-inden-5-yl)-4-methylcyclohexanol] | + | + |
| C=C1CC[C@H]2[C@H](O)[C@@H]([C@@]3(C)CC[C@H](O)C[C@@H]3CCN3CCOCC3)CC[C@]12C [Cpd. No. 46, (3aR,4R,5R,7aS)-5-((1S,2S,4S)-4-hydroxy-1-methyl-2-(2-morpholinoethyl)cyclohexyl)-7a-methyl-1-methyleneoctahydro-1H-inden-4-ol] | ++ | + |

The next lines start with results.

| Scoring, Approach 2 (Initial velocity Ratio) (His-hSHIP1 enzyme) | SMILES | Molt-4 (SHIP+): inhibition of Akt phosphorylation [1] |
| --- | --- | --- |
| + | C=C1CC[C@H]2[C@H](Cn3cncn3)[C@@H]([C@@]3(C)CC[C@H](O)C[C@@H]3CO)CC[C@]12C [Cpd. No. 27, (1S,3S,4R)-4-((3aS,4R,5S,7aS)-4-((1H-1,2,4-triazol-1-yl)methyl)-7a-methyl-1-methyleneoctahydro-1H-inden-5-yl)-3-(hydroxymethyl)-4-methylcyclohexanol] | − |
| ++ | C=C1CC[C@H]2[C@H](CCNC(=O)c3ccc4c(c3)OCO4)[C@@H]([C@@]3(C)CC[C@H](O)C[C@@H]3O)CC[C@]12C [Cpd. No. 93, N-(2-((3aS,4S,5S,7aS)-5-((1R,2S,4S)-2,4-dihydroxy-1-methylcyclohexyl)-7a-methyl-1-methyleneoctahydro-1H-inden-4-yl)ethyl)benzo[d][1,3]dioxole-5-carboxamide] |  |
